Assay results as given in ChEMBL document CHEMBL3045267, “Aromatic-ring-functionalised benzoxazinones in the system Oryza sativa-Echinochloa crus-galli as biorational herbicide models” (Pest Manag Sci, 2009).

Legend:
Echinochloa crus-galli [1] = assay: Herbicidal activity against Echinochloa crus-galli (barnyard grass) assessed as inhibition of root length after 5 days at 25 degC; type: functional, organism-based; conditions: 120 h
Oryza sativa = assay: Phytotoxicity against Oryza sativa (rice) assessed as inhibition of root length after 7 days at 25 degC; type: organism-based; conditions: 168 h
[2] = Phytotoxicity against Oryza sativa (rice) assessed as inhibition of root length at 64 uM after 7 days at 25 degC; type: organism-based; conditions: whole organism (rice plants, root growth)
Echinochloa crus-galli [3] = assay: Herbicidal activity against Echinochloa crus-galli (barnyard grass) assessed as inhibition of root length at 64 uM after 5 days at 25 degC; type: functional; conditions: 120 h

Compound	IC50 (Echinochloa crus-galli [1])	IC50 (Oryza sativa)	inhibition at 168 h, 64 µM [2]	inhibition at 64 µM (Echinochloa crus-galli [3])
O=C1COc2ccccc2N1O	360 µM	–	–	–
COc1ccc2c(c1)OCC(=O)N2O	819 µM	–	–	–
O=C1COc2c(Cl)cc(Cl)cc2N1O [6,8-diCl-D-DIBOA]	281 µM	3320 µM	–	–
O=C1COc2ccc(C(F)(F)F)cc2N1O [6-CF3-D-DIBOA]	160 µM	264 µM	–	–
O=C1COc2ccc(Cl)cc2N1O [6-Cl-D-DIBOA]	8 µM	3 µM	–	–
O=C1COc2ccc(F)cc2N1O [6-F-D-DIBOA]	2.8 µM	9 µM	–	–
COc1ccc2c(c1)N(O)C(=O)CO2 [6-MeO-D-DIBOA]	159 µM	–	–	–
COC(=O)c1ccc2c(c1)N(O)C(=O)CO2 [6-MeOCO-D-DIBOA]	229 µM	–	–	–
O=C1COc2c(ccc(F)c2F)N1O [7,8-diF-D-DIBOA]	52 µM	159 µM	–	–
COc1ccc2c(c1OC)OCC(=O)N2O [7,8-diMeO-D-DIBOA]	690 µM	–	–	–
O=C1COc2cc(F)ccc2N1O [7-F-D-DIBOA]	130 µM	171 µM	–	–
COC(=O)c1ccc2c(c1)OCC(=O)N2O [7-MeOCO-D-DIBOA]	1640 µM	–	–	–
O=C1COc2c(Cl)cccc2N1O [8-Cl-D-DIBOA]	44 µM	501 µM	10%	60%
O=C1COc2c(F)cccc2N1O [8-F-D-DIBOA]	69 µM	185 µM	–	–
CCC(=O)Nc1ccc(Cl)c(Cl)c1 [PROPANIL]	–	213 µM	–	–
